Results on 54 compounds are retold here after patent US20190169140A1, “IDO1 INHIBITOR AND PREPARATION METHOD AND APPLICATION THEREOF” (SHANDONG LUYE PHARMACEUTICAL CO., LTD., priority 2016, published 2019).

Each structure is given as a SMILES string. pIC50: −log10 of the molar value.

T1 sequence (P14902 whole entry): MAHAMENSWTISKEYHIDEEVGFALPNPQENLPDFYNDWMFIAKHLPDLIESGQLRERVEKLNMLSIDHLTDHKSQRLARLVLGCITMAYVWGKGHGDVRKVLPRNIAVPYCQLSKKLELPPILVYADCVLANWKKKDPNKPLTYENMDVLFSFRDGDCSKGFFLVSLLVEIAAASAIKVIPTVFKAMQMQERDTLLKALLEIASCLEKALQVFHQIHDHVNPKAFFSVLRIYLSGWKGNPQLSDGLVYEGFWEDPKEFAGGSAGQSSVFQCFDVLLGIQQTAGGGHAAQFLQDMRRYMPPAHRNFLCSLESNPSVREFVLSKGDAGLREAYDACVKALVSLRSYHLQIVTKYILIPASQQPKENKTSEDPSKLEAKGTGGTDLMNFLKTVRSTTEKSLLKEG

The first assay has as its target T1, recombinant human IDO1 enzyme (Homo sapiens, UniProt P14902).
T1 construct: purchased NTRC (Netherlands Translational Research Center) NTRC-hIDO-10K
Put plainly: Test of hIDO1 for enzymatic activity in vitro (NFK Green fluorescence). The assay is classed as biochemical.
Settings: not given
The procedure:
1. Test of hIDO1 for Enzymatic Activity In Vitro
1.1 Purpose of Experiment:
Changes in production of NFK, an IDO1 enzymatic metabolite were detected with NFK Green™ fluorescent molecules. With an IC50 value of a compound as an index, an inhibitory effect of the compound on recombinant human IDO1 enzyme was evaluated.
The compound was diluted with dimethyl sulfoxide (DMSO) to 1 mM, with 10 gradients, each 3-fold dilution, in duplicate. 48 μL of 50 mM phosphate buffer, having pH of 6.5, was transferred by the Bravo automatic liquid processing platform to the compound plate. Then 2 μL of an already diluted compound/DMSO solution was added. After even mixing, 10 μL of the resultant mixture was transferred to the enzymatic reaction plate.
IDO1 enzyme was diluted to 20 nM in a reaction buffer (50 mM phosphate buffer with pH of 6.5, 0.1% of Tween-20, 2% of glycerol, 20 mM ascorbic acid, 20 μg/ml catalase, and 20 μM methylene blue), 20 μL of the diluted IDO1 enzyme was transferred to the enzymatic reaction plate, and incubated at 23° C. for 30 minutes. 10 μL of 400 μM L-type tryptophan substrate was added to start reaction. The incubation lasted at 23° C. for 90 minutes. 10 μL of NFK Green™ fluorescent dye was added. The resultant mixture was sealed with the plate sealing film. After incubation at 37° C. for 4 hours, an Envision multi-functional plate reader was used for reading (Ex 400 nm/Em 510 nm).
A reference well to which the IDO1 enzyme was added but no compound was added was set to have an inhibition rate of 0%, and a reference well to which no IDO1 enzyme was added was set to have an inhibition rate of 100%. Data was analyzed with XLFit 5 to calculate an IC50 value of the compound.
Regarding `O=S(=O)(NCCOc1nonc1/C(=N/O)Nc1ccc(F)c(Br)c1)c1ccccc1` [Compound 0107], the negative logarithm of the IC50 (pIC50) was 5.89.
Regarding `O=CNCCOc1nonc1/C(=N/O)Nc1ccc(F)c(Br)c1` [Compound 0153], the pIC50 was 6.81.
Take `COc1nonc1/C(=N/O)Nc1ccc(F)c(Br)c1` [Compound 0052]: the pIC50 was 6.96.
Regarding `NS(=O)(=O)NCCOc1nonc1/C(=N/O)Nc1ccc(F)c(Cl)c1` [Compound 0190], the negative-log IC50 (pIC50) is 6.02.
Take `CSc1nonc1/C(=N/O)Nc1ccc(F)c(Br)c1` [Compound 0068]: the negative logarithm of the IC50 (pIC50) was 6.95.
For `NS(=O)(=O)NCCSc1nonc1/C(=N/O)Nc1ccc(F)c(I)c1` [Compound 0273], the negative-log IC50 (pIC50) is 6.84.
In the case of `NS(=O)(=O)NC(COc1nonc1/C(=N/O)Nc1ccc(F)c(Br)c1)c1ccccc1` (stereo not drawn) [Compound 0089], the negative-log IC50 (pIC50) was 6.01.
`N#CCC(=O)NCCSc1nonc1/C(=N/O)Nc1ccc(F)c(Br)c1` [Compound 0249]: the pIC50 was 6.78.
On to `NS(=O)(=O)NCCOc1nonc1C(=NO)Nc1ccc(F)c(C(F)F)c1` [Compound 0151], for which the pIC50 is 6.83.
Consider `CC(C)(C)OC(=O)NOc1nonc1/C(=N/O)Nc1ccc(F)c(Br)c1` [Compound 0078], for which the negative-log IC50 (pIC50) is under 5.00.
Turning to `NS(=O)(=O)NCCOc1nonc1/C(=N/O)Nc1ccc(F)c(C(F)(F)F)c1` [Compound 0121], the negative logarithm of the IC50 (pIC50) was 6.73.
Take `NOc1nonc1/C(=N/O)Nc1ccc(F)c(Br)c1` [Compound 0077]: the pIC50 was under 5.00.
Still for that read-out and setting: to `CN(C)CCN(C)CCOc1nonc1/C(=N/O)Nc1ccc(F)c(Br)c1` [Compound 0182] belongs 6.17; to `O/N=C(\Nc1ccc(F)c(Br)c1)c1nonc1OC1CCOC1` (stereo not drawn) [Compound 0124], 5.99.
On the same count and under the same terms, under `COCCCCOc1nonc1/C(=N/O)Nc1ccc(F)c(Br)c1` [Compound 0128] stands 6.22; under `CCS(=O)(=O)CCOc1nonc1/C(=N/O)Nc1ccc(F)c(Br)c1` [Compound 0180], under 5.00; under `NS(=O)(=O)NCCOc1nonc1/C(=N/O)Nc1ccc(F)c(C2CC2)c1` [Compound 0122], 6.25.
Regarding `NS(=O)(=O)NCC[S+]([O-])c1nonc1/C(=N/O)Nc1ccc(F)c(Br)c1` (stereo not drawn) [Compound 0239], the negative logarithm of the IC50 (pIC50) is 6.07.
`CS(=O)(=O)N1CCC(COc2nonc2/C(=N/O)Nc2ccc(F)c(Br)c2)CC1` [Compound 0142]: the negative logarithm of the IC50 (pIC50) was 5.88.
Still for that read-out and setting: to `CN(C)S(=O)(=O)NCCSc1nonc1/C(=N/O)Nc1ccc(F)c(Br)c1` [Compound 0232] belongs 6.43; to `O=S(=O)(NCCSc1nonc1/C(=N/O)Nc1ccc(F)c(Br)c1)C1CC1` [Compound 0230], 6.69; to `O=C(CSc1nonc1/C(=N/O)Nc1ccc(F)c(Br)c1)NCC(F)(F)F` [Compound 0301], 6.90.
With `O/N=C(\Nc1ccc(F)c(Br)c1)c1nonc1SCc1ccccc1Cl` [Compound 0134], the negative logarithm of the IC50 (pIC50) was 5.15.
For `CP(C)(=O)NCCOc1nonc1/C(=N/O)Nc1ccc(F)c(Br)c1` [Compound 0149], the negative logarithm of the IC50 (pIC50) was 6.54.
Still for that read-out and setting: to `NS(=O)(=O)NC1(COc2nonc2/C(=N/O)Nc2ccc(F)c(Br)c2)CC1` [Compound 0070] belongs 5.86; to `CC(COc1nonc1/C(=N/O)Nc1ccc(F)c(Br)c1)NS(N)(=O)=O` (stereo not drawn) [Compound 0071], 6.10.
For `NS(=O)(=O)NCCOc1nonc1/C(=N/O)Nc1cc(F)c(Cl)c(F)c1` [Compound 0156], the pIC50 is 5.24.
Still for that read-out and setting: to `NS(=O)(=O)NCCOc1nonc1/C(=N/O)Nc1cc(F)c(F)c(Br)c1` [Compound 0189] belongs 6.23; to `O/N=C(\Nc1ccc(F)c(Br)c1)c1nonc1OCC(F)(F)F` [Compound 0135], 5.48.
With `NS(=O)(=O)N[C@H]1C[C@H](Oc2nonc2/C(=N/O)Nc2ccc(F)c(Br)c2)C1` [Compound 0222], the negative-log IC50 (pIC50) is 6.33.
For `O/N=C(\Nc1ccc(F)c(Br)c1)c1nonc1Oc1ccc(Cl)cc1` [Compound 0150], the negative-log IC50 (pIC50) was under 5.00.
On to `N#Cc1cc(N/C(=N\O)c2nonc2OCCNS(N)(=O)=O)ccc1F` [Compound 0120], for which the pIC50 was 6.21.
For `O/N=C(\Nc1ccc(F)c(Br)c1)c1nonc1SC1CCCCC1` [Compound 0137], the pIC50 is 5.24.
Same read-out and setting: under `O=C(CSc1nonc1/C(=N/O)Nc1ccc(F)c(Br)c1)NCC(F)F` [Compound 0302] stands 7.06; under `CCN(CC)C(=O)COc1nonc1/C(=N/O)Nc1ccc(F)c(Br)c1` [Compound 0183], 5.95; under `O=C(NCCOc1nonc1/C(=N/O)Nc1ccc(F)c(Br)c1)c1ccccc1` [Compound 0108], 6.41.
Still for that read-out and setting: under `C=CCSc1nonc1/C(=N/O)Nc1ccc(F)c(Br)c1` [Compound 0138] stands 6.44; under `O/N=C(\Nc1ccc(F)c(Br)c1)c1nonc1OCCc1ccccn1` [Compound 0131], 6.15; under `CS(=O)(=O)N1CC(COc2nonc2/C(=N/O)Nc2ccc(F)c(Br)c2)C1` [Compound 0141], 6.34.
In the case of `CN(C)CCOc1nonc1/C(=N/O)Nc1ccc(F)c(Br)c1` [Compound 0140], the negative-log IC50 (pIC50) was 6.71.
For `COc1nonc1/C(=N/C#N)Nc1ccc(F)c(Br)c1` [Compound 0069], the negative-log IC50 (pIC50) was under 5.00.
The same measure, in the same setting: under `O/N=C(\Nc1ccc(F)c(Br)c1)c1nonc1O` [Compound 0026] stands under 5.00; under `NS(=O)(=O)NCCOc1nonc1/C(=N/O)Nc1ccc(Cl)c(C(F)(F)F)c1` [Compound 0184], 5.32; under `O/N=C(\Nc1ccc(F)c(Br)c1)c1nonc1OCc1cncs1` [Compound 0144], under 5.00.
Consider `NS(=O)(=O)NCCOc1nonc1/C(=N/O)Nc1ccc(Cl)c(Cl)c1` [Compound 0160], for which the pIC50 is 5.42.
The same measure, in the same setting: to `O/N=C(\Nc1ccc(F)c(Br)c1)c1nonc1OCC1COC1` [Compound 0129] belongs 6.37; to `O=C1NCCN1CCOc1nonc1/C(=N/O)Nc1ccc(F)c(Br)c1` [Compound 0179], 6.23.
Consider `CCNC(=O)CSc1nonc1C(=NO)Nc1ccc(F)c(Br)c1` [Compound 0300], for which the pIC50 is 7.14.
`CN(CCOc1nonc1/C(=N/O)Nc1ccc(F)c(Br)c1)Cc1ccccc1` [Compound 0133]: the pIC50 is 5.99.
`O/N=C(\Nc1ccc(F)c(Br)c1)c1nonc1OCc1c[nH]cn1` [Compound 0143]: the pIC50 was under 5.00.
In the case of `COc1c(F)cc(N/C(=N\O)c2nonc2OCCNS(N)(=O)=O)cc1F` [Compound 0158], the negative-log IC50 (pIC50) is 5.36.
Regarding `CC(CNS(N)(=O)=O)Oc1nonc1/C(=N/O)Nc1ccc(F)c(Br)c1` (stereo not drawn) [Compound 0119], the negative-log IC50 (pIC50) is 5.68.
As to `NS(=O)(=O)NCCOc1nonc1/C(=N/O)Nc1ccc(F)c(F)c1` [Compound 0162], the pIC50 is 6.03.
Still for that read-out and setting: to `COc1nonc1/C(=N/O)Nc1ccc(F)c(C#N)c1` [Compound 0103] belongs 6.27.

Another assay deals with T2, IDO1 enzyme in Hela cells (Homo sapiens, UniProt P14902).
T2 construct: endogenous in cells; host or cells: Hela cells, induced with recombinant human interferon-γ
T2 sequence (P14902 whole entry): as above
Put plainly: Test of hIDO1 for cytological activity (Hela cell kynurenine by LCMS, interferon-γ induced). Format: cell-based. As to conditions: interferon-γ 100 ng/ml, 20 hours. How it is done: 2. Test of hIDO1 for Cytological Activity
Changes in Hela cell kynurenine were detected by an LCMS method. With an IC50 value of a compound as an index, an inhibitory effect of the compound on IDO1 enzyme was evaluated.
The culture medium, trypsin, and DPBS were preheated in water bath at 37° C. The culture medium was removed by sucking from cell culture, followed by cleaning the cell culture with 10 mL of DPBS; the preheated trypsin was added to the culture flask, which was revolved to make the culture flask covered by trypsin uniformly, and placed into an incubator at 37° C. with 5% CO2 for digestion for 1-2 minutes; 10-15 mL of the culture medium was used to suspend cells each T150, followed by centrifugation at 800 rpm for 5 minutes. 10 mL of the culture medium was used to resuspend the cells. 1 mL of the cell resuspension was pipetted, and counted with Vi-cell; the Hela cells were diluted to 5×10^5/mL with the culture medium, 80 μL of the diluted Hela cells were added to the 96-well cell plate, and incubated in the an incubator at 37° C. with 5% CO2 for 5-6 hours.
The compound was diluted with DMSO to 1 mM, with 9 gradients, each 3-fold dilution, in duplicate. 5 μL of the already diluted compound DMSO solution was added to the compound plate containing 95 μL of the culture medium. After even mixing, 10 μL of the mixture was transferred to the cell plate.
10 μL of recombinant human interferon-γ was added to result in a final concentration of 100 ng/ml, to induce expression of IDO1. Incubation was carried out in the 5% CO2 incubator at 37° C. for 20 hours. 4 μL of 5% (w/v) trichloroacetic acid was added, followed by even mixing and incubation at 50° C. for 30 minutes. After centrifugation at 2400 rpm for 10 minutes, 40 μL of a supernatant was added to a 96-well V-bottom plate, followed by addition of a precipitant. Centrifugation was carried out at 4000 rpm for 10 minutes after even mixing. 100 μL of the supernatant was transferred to a new 96-well V-bottom plate. A content of kynurenine was detected through LCMS.
A reference well to which the interferon-γ was added but no compound was added was set to have an inhibition rate of 0%, and a reference well to which no Hela cell was added was set to have an inhibition rate of 100%. Data was analyzed with XLFit 5 to calculate an IC50 value of the compound.
Take `O=CNCCOc1nonc1/C(=N/O)Nc1ccc(F)c(Br)c1` [Compound 0153]: the pIC50 is 7.08.
Still for that read-out and setting: to `COc1nonc1/C(=N/O)Nc1ccc(F)c(Br)c1` [Compound 0052] belongs 7.60; to `CSc1nonc1/C(=N/O)Nc1ccc(F)c(Br)c1` [Compound 0068], 7.54.
In turn, `NS(=O)(=O)NCCSc1nonc1/C(=N/O)Nc1ccc(F)c(I)c1` [Compound 0273] had a negative-log IC50 (pIC50) of 7.46.
`N#CCC(=O)NCCSc1nonc1/C(=N/O)Nc1ccc(F)c(Br)c1` [Compound 0249] gave a negative-log IC50 (pIC50) of 7.52.
Same read-out and setting: to `NS(=O)(=O)NCCOc1nonc1C(=NO)Nc1ccc(F)c(C(F)F)c1` [Compound 0151] belongs 7.60.

One may read the pIC50 as the negative decadic logarithm of the IC50, by convention in mol/L.
